pKd: −log10 of the molar value.
Biological target: Carbonic anhydrase 5A, mitochondrial (Homo sapiens, UniProt P35218)
Experiment: Inhibition of human carbonic anhydrase 5A

Carbonic anhydrase 5A, mitochondrial, sequence (P35218 whole entry): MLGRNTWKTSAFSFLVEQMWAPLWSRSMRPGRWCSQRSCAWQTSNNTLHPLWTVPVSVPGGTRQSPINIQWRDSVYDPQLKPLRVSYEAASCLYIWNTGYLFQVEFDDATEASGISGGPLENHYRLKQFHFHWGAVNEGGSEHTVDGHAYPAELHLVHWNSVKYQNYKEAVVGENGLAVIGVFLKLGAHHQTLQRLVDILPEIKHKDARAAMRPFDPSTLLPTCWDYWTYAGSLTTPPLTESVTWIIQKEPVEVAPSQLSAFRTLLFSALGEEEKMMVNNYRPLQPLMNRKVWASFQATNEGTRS

pKd: 7.60
Compound: CC1(C)O[C@@H]2[C@@H](CO[C@@]3(COS(N)(=O)=O)OC(C)(C)O[C@@H]23)O1 [TOPIRAMATE]
